According to patent US12577232B2, “N-heterocycle substituted tryptamine derivatives and methods of using” (ENVERIC B[…] INC., priority 2024, dated 2026):
Several values for one entry are separate records, joined by “and”; a condition that tells them apart may be missing. Equal entries are not always repeated.

Tests used:
[1] = tested on: human model (NT2) neurons; test: Neuroplastogenicity (neurite outgrowth) assay in NT2 neurons; format: cell-based; parameters: key: a positive (+) designation indicating strong evidence of enhanced neurite outgrowth in drug-treated NT2 cells compared to vehicle-treated cells; a negative (−) designation indicating weak or no evidence of enhanced neurite outgrowth in drug-treated NT2 cells compared to vehicle-treated cells; details: 1 or 10 μM, 48 h, visual inspection vs vehicle (0.1% DMSO)
Excerpt: Classic psychedelics such as psilocybin and DMT show potential to treat anxiety and depression, and it has been theorized that such long-term improvements arise because these drugs rapidly and lastingly stimulate neuroplasticity (Calder and Hasler, 2023, Neuropsychopharmacol. 48:104-112). Thus, it was of interest to determine the potential of new compounds as neuroplastogens. Herein, we assess the capacity of various compounds to enhance neurite outgrowth in human model (NT2) neurons.
Human NT2/D1 precursor cells were purchased from the American Type Culture Collection (ATCC, Manassas, VA, USA). Neuronal differentiation was carried out as previously described (Roloff et al., 2015, PloS ONE 10:e0118536) with minor modifications. Firstly, NT2/D1 cells were seeded in T-25 suspension culture flasks (REF #690190, Greiner bio-one, Germany). Each flask contains a minimum of 5×10^6 cells in 10 ml of DMEM/F12 supplemented with 10% fetal bovine serum (FBS), 1% penicillin and streptomycin and 10 μM retinoic acid (RA) medium to start neuronal differentiation. The cells were cultured for 3 days in free floating medium. At the end of the incubation cells were trypsinized and collected by centrifugation, mechanically dispersed, and counted. Counted cells were seeded along Poly D-Lysine (PDL) coated cover slips (12 mm; diameter round, Fisher Scientific; GG-12-PDL) containing a minimum of 0.1×10^5 cells in culture medium without RA. The next day culture medium was replaced with RA medium containing 2% of FBS. These cells cultured for 5 days and two days later, RA medium was changed.
After cells had successfully attached and established along coverslips, the RA medium was replaced with new medium containing 2% FBS and one of the following: (1) test compound (1 or 10 μM), (2) RhoK (ROCK) inhibitor Y-27632 (1 μM) as a positive control (Dihydrochloride; Sigma-Aldrich) (Roloff et al., 2015, PloS ONE 10:e0118536); (3) DMT (1 or 10 μM) as a positive control (Calder and Hasler, 2023, Neuropsychopharmacol. 48:104-112), or (4) vehicle (0.1% DMSO) as a negative control. These cells were incubated for 48 hours under standard conditions (370C, 5% CO2). The cells cultured along coverslips were collected after 48 hours of treatment. The coverslips washed with calcium chloride and magnesium chloride-free phosphate buffered saline (PBS) pH 7.4 (Gibco, #70011-044) and fixed in paraformaldehyde (PFA) 4% in PBS (#J61899, thermoscientific) for 15 min at room temperature (RT) and washed three times with 0.01% of Triton-X100 in PBS (PBST) to remove remaining PFA and to permeabilize the cells. Non-specific binding sites were blocked with 5% of Bovine Serum Albumin (BSA) solution (#9048-46-8, Millipore) in PBST for 60 minutes at RT. Rabbit monoclonal antibody β-III-tubulin (1:5,000, ab52623, Abcam) was applied overnight (O/N) at 4° C. Next day cells are washed three times in PBST, neurons were incubated with secondary antibody Donkey anti-rabbit IgG(H+L) Alexa Fluor™ Plus488 (1:5000 #A32790, Invitrogen) for 1 hour at RT. These coverslips were mounted on Gluoromount-G™, with 4′6-diamidino-2′henylindoldihydrochloride (DAPI) (#E141818, Invitrogen). The immunofluorescence images were analyzed using an Olympus VS110 slide scanner microscope.
B-III-Tubulin immunofluorescence was quantified using ImageJ. Briefly, Corrected Total Cell Fluorescence (CTCF) was acquired for at least ˜8-10 representative cells, where CTCF=Integrated Density−[Area of selected cell*Mean Fluorescence of background]. The CTCF values, referred to herein as ‘signal intensities’, were used to calculate overall means±SD for each treatment. One-Way ANOVA was used to compare treatments. Further, the mean of each treatment was compared with the mean of the control treatment (RA-differentiated cells treated with vehicle, 0.1% DMSO) using Dunnett's multiple comparison procedure. […]

[2] = target: T1, human serotonin transporter (SERT) (Homo sapiens, UniProt P31645); test: biochemical; format: binding; details: 1 nM imipramine; membranes containing human SERT; read-out: SERT, Ki
T1 construct: purchased PerkinElmer RBHSTM400UA
Experimental: A commonly applied SERT binding assay involves competition binding assays employing radiolabelled ligands. […] Radioactive binding assays were carried out using the Scintillation Proximity Assay (SPA). For saturation binding assay, mixtures of 9 μg of membrane containing human SERT was pre-coupled to 1 mg of SPA beads at room temperature in a tube rotator for 1 hour in binding buffer (50 mM Tris-HCl pH7.4, 120 mM NaCl, 5 mM KCl, 1 mM ascorbic acid, 10 μM pargyline HCl). […] After incubation, the samples are read on a MicroBeta 2 Microplate Counter. Non-specific binding was carried out in the presence of 200 μM of clomipramine hydrochloride (C7291-1G, Sigma). Equilibrium binding constant for imipramine (KD) was determined from saturation binding curve using one-site saturation binding analysis from GraphPad PRISM software (Version 9.2.0). All test compounds were dissolved to 100 mM in DMSO and dilutions were carried out in assay buffer. […] Ki values were calculated from the competition displacement data using the competitive binding analysis from GraphPad PRISM software. […] Vehicle (DMSO) without drug was used as a negative control.

5-HT2A receptor = target: T2, 5-HT2A receptor (Homo sapiens, UniProt P28223); test: 5-HT2A receptor radioligand competition assay (SPA, [3H]ketanserin); format: binding; details: 1 nM [3H]ketanserin; membranes containing 5-HT2A; read-out: 5-HT2A, Ki
T2 construct: purchased PerkinElmer ES-313-M400UA
Experimental: Competition assays were performed as for 5-HT1A assays with the following differences. […] Determination of non-specific binding was carried out in the presence of […] of spiperone (S7395-250MG, Sigma-Aldrich). Equilibrium binding constant for ketanserin (Kd) was determined from saturation binding curves using the ‘one-site saturation binding analysis’ method in GraphPad PRISM software (Version 9.2.0).

C57BL/6 mice = test: Mouse Head Twitch Response (HTR) assay to assess hallucinogenic potential; format: in vivo; details: 3 mg/kg i.p.; for mean HTR: 0-15 min interval (preliminary screening); for HTR compared with the HTR response for 5-Br-DMT (one-way ANOVA, Dunnett): alpha 0.05
Experimental: All experiments were approved by the University of Calgary Animal Care and Use Committee in accordance with Canadian Council on Animal Care guidelines. C57BL/6-Elite mixed sex mice were obtained from Charles River (8 weeks old). Until the first experiment, mice were group-housed, then single-housed on a 12:12 h light/dark schedule (lights on at 07:00 hours) with ad libitum access to food and water. Before any behavioral screening, mice were handled and exposed to the testing chamber for at least 5 min each day for three successive days and habituated to the experimental room 1 h before testing. The testing chamber was cleaned with a 70% ethanol solution between experiments to eliminate odor from other mice. Drug compounds (100 mM in DMSO) were diluted in sterile excipient (10% EtOH/15% PEG400 in ddH2O) to 3 mg/kg (preliminary screening) or 0.5, 2, 4, 7, and 10 mg/kg (dose-curve analysis) and administered using intraperitoneal (i.p.) drug injections. […] HTR was analyzed during the 0-to-15-minute window following drug administration. […] Mean HTR between 10 and 5 signifies reduced hallucinogenic potential relative to positive controls.

T2 sequence (P28223 whole entry): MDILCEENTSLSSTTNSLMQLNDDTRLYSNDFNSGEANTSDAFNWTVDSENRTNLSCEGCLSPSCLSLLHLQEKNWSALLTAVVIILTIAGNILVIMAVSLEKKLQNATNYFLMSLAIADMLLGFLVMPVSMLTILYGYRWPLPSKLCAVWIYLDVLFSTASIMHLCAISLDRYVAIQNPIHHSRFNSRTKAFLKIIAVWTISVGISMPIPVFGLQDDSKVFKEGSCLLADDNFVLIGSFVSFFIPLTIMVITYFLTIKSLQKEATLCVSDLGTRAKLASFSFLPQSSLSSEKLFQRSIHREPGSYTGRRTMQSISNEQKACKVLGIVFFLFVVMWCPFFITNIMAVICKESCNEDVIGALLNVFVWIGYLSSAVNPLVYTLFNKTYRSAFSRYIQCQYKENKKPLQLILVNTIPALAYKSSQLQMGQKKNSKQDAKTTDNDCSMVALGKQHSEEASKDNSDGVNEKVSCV
T1 sequence (P31645 whole entry): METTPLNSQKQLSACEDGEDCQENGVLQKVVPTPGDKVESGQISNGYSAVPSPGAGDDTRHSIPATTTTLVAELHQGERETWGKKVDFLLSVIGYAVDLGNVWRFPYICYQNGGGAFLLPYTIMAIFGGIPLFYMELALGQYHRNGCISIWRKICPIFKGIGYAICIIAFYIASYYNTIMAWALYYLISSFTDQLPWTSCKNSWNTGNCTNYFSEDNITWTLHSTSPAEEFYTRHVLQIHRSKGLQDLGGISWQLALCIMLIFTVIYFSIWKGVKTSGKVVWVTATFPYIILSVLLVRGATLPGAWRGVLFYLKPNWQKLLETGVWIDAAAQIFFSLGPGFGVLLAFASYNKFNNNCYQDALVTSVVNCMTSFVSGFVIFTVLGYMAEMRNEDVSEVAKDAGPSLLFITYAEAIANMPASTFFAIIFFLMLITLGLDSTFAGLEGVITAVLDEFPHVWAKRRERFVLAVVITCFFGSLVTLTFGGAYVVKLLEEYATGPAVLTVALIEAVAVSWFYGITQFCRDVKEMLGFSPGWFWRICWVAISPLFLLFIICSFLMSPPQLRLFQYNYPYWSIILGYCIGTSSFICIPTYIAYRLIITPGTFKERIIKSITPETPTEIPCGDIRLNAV

Molecule	Evidence of neurite outgrowth: Yes (+) or No (−) [1]	Ki [2] [µM]	Ki (5-HT2A receptor)	mean HTR (C57BL/6 mice)	HTR compared with the HTR response for 5-Br-DMT (one-way ANOVA, Dunnett) (C57BL/6 mice)
5-bromo-dimethyltryptamine [Compound 5-Br-DMT, reference compound]	+				
COc1cc(CCN)c(OC)cc1Br [Compound 2C-B, reference compound]		11.4			
COc1ccc2[nH]cc(CCN(C)C)c2c1 [Compound 5-MeO-DMT, 5-methoxy-dimethyltryptamine, reference compound]	+				
CCN(CC)CCc1c[nH]c2cc(F)ccc12 [Compound 6-F-DET, 6-fluoro-diethyltryptamine, reference compound]	+		0.35 µM		
CC(=O)c1[nH]c2cc(F)c(N3CCOCC3)cc2c1CCN(C)C [Compound (IX)]	−		14.2 µM	9.25	not statistically significantly higher
CN(C)CCc1c[nH]c2ccc(N3CCOCC3)cc12 [Compound (V)]	+		15 µM	7.8	not statistically significantly higher
CN(C)CCc1c[nH]c2ccc(N3CCC3)cc12 [Compound (VI)]	+		12 µM	11.5	
CN(C)CCc1c[nH]c2cc(F)c(N3CCOCC3)cc12 [Compound (VII)]	+		63.9 µM	7.75	not statistically significantly higher
CN(C)CCc1c[nH]c2cc(N3CCOCC3)ccc12 [Compound (VIII)]	−		10.9 µM	8.0	not statistically significantly higher
CN(C)CCc1c[nH]c2cc(N3CCCC3)ccc12 [Compound (X)]	+		7.8 µM	7.25	not statistically significantly higher
CN(C)CCc1c[nH]c2cc(N3CCOCC3)c(F)cc12 [Compound (XI)]	−		0.71 µM	10.5	
CN(C)CCc1c[nH]c2cc(F)cc(N3CCCC3)c12 [Compound (XIII)]	+		2.96 µM	7.75	not statistically significantly higher
CN(C)CCc1c[nH]c2cc(N3CCCC3)c(F)cc12 [Compound (XIV)]	+		3.1 µM and 3.06 µM	9.0	not statistically significantly higher
CN(C)CCc1c[nH]c2cc(F)cc(N3CCN(C)CC3)c12 [Compound (XIX)]				11.5	
CN(C)CCc1c[nH]c2cc(N3CCOCC3)cc(F)c12 [Compound (XVI)]			6.2 µM and 6.19 µM	6.75	not statistically significantly higher
CN(CCc1c[nH]c2cc(N3CCOCC3)c(F)cc12)Cc1ccccc1 [Compound (XX)]	+		25.6 µM	7.25	not statistically significantly higher
CN(C)CCc1c[nH]c2cc(N3CCN(C)CC3)cc(F)c12 [Compound (XXI)]				9.25	not statistically significantly higher
CN(C)CCc1c[nH]c2cc(Cl)cc(N3CCOCC3)c12 [Compound (XXII)]				6.5	not statistically significantly higher
CN(C)CCc1c[nH]c2cc(Cl)cc(N3CCN(C)CC3)c12 [Compound (XXIII)]	+		12.5 µM	7.25	not statistically significantly higher
CN(C)CCc1c[nH]c2cc(F)c(N3CCN(C)CC3)cc12 [Compound (XXV)]	−			8.5	not statistically significantly higher
CN(C)CCc1c[nH]c2cc(F)c(N3CCN(c4ccccc4)CC3)cc12 [Compound (XXVI)]				8.25	not statistically significantly higher
CCN(CC)CCc1c[nH]c2cc(F)cc(N3CCOCC3)c12 [Compound (XXVII)]	−		5.4 µM and 5.38 µM	8.0	not statistically significantly higher
C[C@@H](N)[C@H]1CC[C@H](C(=O)Nc2ccncc2)CC1 [RhoK, reference compound]	+				
COc1ccc2c3c([nH]c2c1)CCN(C)CC3 [TBG, tabernanthalog, reference compound]	+		0.8 µM		
N[C@@H](Cc1c[nH]c2ccccc12)C(=O)O [tryptophan, reference compound]			> 1000 µM		
